Source: patent US20120029085A1, “STABILIZATION OF QUINOL COMPOSITION SUCH AS CATECHOLAMINE DRUGS” (priority 2010, published 2012)

assay: not given; details: Table 3, buffer, first dissociation; cited from earlier work

Row | SMILES | pKa1
1 | OCC(CO)(CO)NCCCNC(CO)(CO)CO [Bis-Tris Propane] | 6.80

same assay, conditions: Table 3, buffer, second dissociation; cited from earlier work

Row | SMILES | pKa2
2 | O=C(O)CC(O)C(=O)O (stereo not drawn) [Malate] | 5.13

same assay, conditions: Table 3, buffer; cited from earlier work

Row | SMILES | pKa
3 | NC(=O)CN(CC(=O)O)CC(=O)O [ADA] | 6.60
4 | O=S(=O)(O)CCN(CCO)CCO [BES] | 7.09
5 | O=S(=O)(O)CCCCN1CCOCC1 [MOBS] | 7.60
6 | O=S(=O)(O)CCNC(CO)(CO)CO [TES] | 7.50
7 | O=C(O)CNC(CO)(CO)CO [Tricine] | 8.05

same assay, conditions: text list of pH buffers, b28; cited from earlier work

Row | SMILES | pKa (value in parentheses after the buffer name)
8 | CCC(CC)(C(=O)O)C(=O)O [diethylmalonic acid] | 7.2

assay: Percent protonated (RNH+) and unprotonated (RN) amine form of local anesthetics as a function of pH; format: physicochemical; details: pH 5.0, protonated form
Source text: According to the Henderson-Hasselbalch equation:
pH=pKa+log([A^−]/[HA]) (I)

Row | SMILES | % RNH(+) at pH 5.0
9 | CCCNC(C)C(=O)Nc1c(C)csc1C(=O)OC (stereo not drawn) [Articaine] | 99.84%
10 | CCOC(=O)c1ccc(N)cc1 [Benzocaine] | 0.99%
11 | CCCCN1CCCCC1C(=O)Nc1c(C)cccc1C (stereo not drawn) [Bupivacaine] | 99.92%
12 | CCN(CC)CCOC(=O)c1ccc(N)cc1Cl [Chloroprocaine] | 99.98%
13 | CCCCOc1cc(C(=O)NCCN(CC)CC)c2ccccc2n1 [Dibucaine] | 99.98%
14 | CCCN(CC)C(CC)C(=O)Nc1c(C)cccc1C (stereo not drawn) [Etidocaine] | 99.80%
15 | CCN(CC)CC(=O)Nc1c(C)cccc1C [Lidocaine] | 99.87%
16 | Cc1cccc(C)c1NC(=O)C1CCCCN1C (stereo not drawn) [Mepivacaine] | 99.75%
17 | CCCNC(C)C(=O)Nc1ccccc1C (stereo not drawn) [Prilocaine] | 99.87%
18 | CCN(CC)CCOC(=O)c1ccc(N)cc1 [Procaine] | 99.99%
19 | CCCN1CCCC[C@H]1C(=O)Nc1c(C)cccc1C [Ropivacaine] | 99.92%
20 | CCCCNc1ccc(C(=O)OCCN(C)C)cc1 [Tetracaine] | 99.94%

same assay, conditions: pH 5.0, unprotonated form

Row | SMILES | % RN at pH 5.0
21 | CCCNC(C)C(=O)Nc1c(C)csc1C(=O)OC (stereo not drawn) [Articaine] | 0.16%
22 | CCOC(=O)c1ccc(N)cc1 [Benzocaine] | 99.01%
23 | CCCCN1CCCCC1C(=O)Nc1c(C)cccc1C (stereo not drawn) [Bupivacaine] | 0.08%
24 | CCN(CC)CCOC(=O)c1ccc(N)cc1Cl [Chloroprocaine] | 0.02%
25 | CCCCOc1cc(C(=O)NCCN(CC)CC)c2ccccc2n1 [Dibucaine] | 0.02%
26 | CCCN(CC)C(CC)C(=O)Nc1c(C)cccc1C (stereo not drawn) [Etidocaine] | 0.20%
27 | CCN(CC)CC(=O)Nc1c(C)cccc1C [Lidocaine] | 0.13%
28 | Cc1cccc(C)c1NC(=O)C1CCCCN1C (stereo not drawn) [Mepivacaine] | 0.25%
29 | CCCNC(C)C(=O)Nc1ccccc1C (stereo not drawn) [Prilocaine] | 0.13%
30 | CCN(CC)CCOC(=O)c1ccc(N)cc1 [Procaine] | 0.01%
31 | CCCN1CCCC[C@H]1C(=O)Nc1c(C)cccc1C [Ropivacaine] | 0.08%
32 | CCCCNc1ccc(C(=O)OCCN(C)C)cc1 [Tetracaine] | 0.06%

same assay, conditions: pH 6.5, protonated form

Row | SMILES | % RNH(+) at pH 6.5
33 | CCCNC(C)C(=O)Nc1c(C)csc1C(=O)OC (stereo not drawn) [Articaine] | 95.23%
34 | CCOC(=O)c1ccc(N)cc1 [Benzocaine] | 0.03%
35 | CCCCN1CCCCC1C(=O)Nc1c(C)cccc1C (stereo not drawn) [Bupivacaine] | 97.55%
36 | CCN(CC)CCOC(=O)c1ccc(N)cc1Cl [Chloroprocaine] | 99.37%
37 | CCCCOc1cc(C(=O)NCCN(CC)CC)c2ccccc2n1 [Dibucaine] | 99.50%
38 | CCCN(CC)C(CC)C(=O)Nc1c(C)cccc1C (stereo not drawn) [Etidocaine] | 94.06%
39 | CCN(CC)CC(=O)Nc1c(C)cccc1C [Lidocaine] | 96.17%
40 | Cc1cccc(C)c1NC(=O)C1CCCCN1C (stereo not drawn) [Mepivacaine] | 92.64%
41 | CCCNC(C)C(=O)Nc1ccccc1C (stereo not drawn) [Prilocaine] | 96.17%
42 | CCN(CC)CCOC(=O)c1ccc(N)cc1 [Procaine] | 99.60%
43 | CCCN1CCCC[C@H]1C(=O)Nc1c(C)cccc1C [Ropivacaine] | 97.55%
44 | CCCCNc1ccc(C(=O)OCCN(C)C)cc1 [Tetracaine] | 98.04%

same assay, conditions: pH 6.5, unprotonated form

Row | SMILES | % RN at pH 6.5
45 | CCCNC(C)C(=O)Nc1c(C)csc1C(=O)OC (stereo not drawn) [Articaine] | 4.77%
46 | CCOC(=O)c1ccc(N)cc1 [Benzocaine] | 99.97%
47 | CCCCN1CCCCC1C(=O)Nc1c(C)cccc1C (stereo not drawn) [Bupivacaine] | 2.45%
48 | CCN(CC)CCOC(=O)c1ccc(N)cc1Cl [Chloroprocaine] | 0.63%
49 | CCCCOc1cc(C(=O)NCCN(CC)CC)c2ccccc2n1 [Dibucaine] | 0.50%
50 | CCCN(CC)C(CC)C(=O)Nc1c(C)cccc1C (stereo not drawn) [Etidocaine] | 5.94%
51 | CCN(CC)CC(=O)Nc1c(C)cccc1C [Lidocaine] | 3.83%
52 | Cc1cccc(C)c1NC(=O)C1CCCCN1C (stereo not drawn) [Mepivacaine] | 7.36%
53 | CCCNC(C)C(=O)Nc1ccccc1C (stereo not drawn) [Prilocaine] | 3.83%
54 | CCN(CC)CCOC(=O)c1ccc(N)cc1 [Procaine] | 0.40%
55 | CCCN1CCCC[C@H]1C(=O)Nc1c(C)cccc1C [Ropivacaine] | 2.45%
56 | CCCCNc1ccc(C(=O)OCCN(C)C)cc1 [Tetracaine] | 1.96%

same assay, conditions: pH 7.4, protonated form

Row | SMILES | % RNH(+) at pH 7.4
57 | CCCNC(C)C(=O)Nc1c(C)csc1C(=O)OC (stereo not drawn) [Articaine] | 71.53%
58 | CCOC(=O)c1ccc(N)cc1 [Benzocaine] | 0.00%
59 | CCCCN1CCCCC1C(=O)Nc1c(C)cccc1C (stereo not drawn) [Bupivacaine] | 83.37%
60 | CCN(CC)CCOC(=O)c1ccc(N)cc1Cl [Chloroprocaine] | 95.23%
61 | CCCCOc1cc(C(=O)NCCN(CC)CC)c2ccccc2n1 [Dibucaine] | 96.17%
62 | CCCN(CC)C(CC)C(=O)Nc1c(C)cccc1C (stereo not drawn) [Etidocaine] | 66.61%
63 | CCN(CC)CC(=O)Nc1c(C)cccc1C [Lidocaine] | 75.97%
64 | Cc1cccc(C)c1NC(=O)C1CCCCN1C (stereo not drawn) [Mepivacaine] | 61.31%
65 | CCCNC(C)C(=O)Nc1ccccc1C (stereo not drawn) [Prilocaine] | 75.97%
66 | CCN(CC)CCOC(=O)c1ccc(N)cc1 [Procaine] | 96.93%
67 | CCCN1CCCC[C@H]1C(=O)Nc1c(C)cccc1C [Ropivacaine] | 83.37%
68 | CCCCNc1ccc(C(=O)OCCN(C)C)cc1 [Tetracaine] | 86.32%

same assay, conditions: pH 7.4, unprotonated form

Row | SMILES | % RN at pH 7.4
69 | CCCNC(C)C(=O)Nc1c(C)csc1C(=O)OC (stereo not drawn) [Articaine] | 28.47%
70 | CCOC(=O)c1ccc(N)cc1 [Benzocaine] | 100.00%
71 | CCCCN1CCCCC1C(=O)Nc1c(C)cccc1C (stereo not drawn) [Bupivacaine] | 16.63%
72 | CCN(CC)CCOC(=O)c1ccc(N)cc1Cl [Chloroprocaine] | 4.77%
73 | CCCCOc1cc(C(=O)NCCN(CC)CC)c2ccccc2n1 [Dibucaine] | 3.83%
74 | CCCN(CC)C(CC)C(=O)Nc1c(C)cccc1C (stereo not drawn) [Etidocaine] | 33.39%
75 | CCN(CC)CC(=O)Nc1c(C)cccc1C [Lidocaine] | 24.03%
76 | Cc1cccc(C)c1NC(=O)C1CCCCN1C (stereo not drawn) [Mepivacaine] | 38.69%
77 | CCCNC(C)C(=O)Nc1ccccc1C (stereo not drawn) [Prilocaine] | 24.03%
78 | CCN(CC)CCOC(=O)c1ccc(N)cc1 [Procaine] | 3.07%
79 | CCCN1CCCC[C@H]1C(=O)Nc1c(C)cccc1C [Ropivacaine] | 16.63%
80 | CCCCNc1ccc(C(=O)OCCN(C)C)cc1 [Tetracaine] | 13.68%

assay: not given; details: amine group of the local anesthetic; cited from earlier work

Row | SMILES | pKa (amine)
81 | CCOC(=O)c1ccc(N)cc1 [Benzocaine] | 3
82 | CCN(CC)CCOC(=O)c1ccc(N)cc1Cl [Chloroprocaine] | 8.7
83 | CCCCOc1cc(C(=O)NCCN(CC)CC)c2ccccc2n1 [Dibucaine] | 8.8

assay: not given; details: cystine/cysteine redox couple; cited from earlier work

Row | SMILES | standard reduction potential E°
84 | N[C@@H](CS)C(=O)O [cysteine] | −0.34 V
